Values of other authors as cited in paper PMC10326281, “Insights into the mechanisms governing P01 scorpion toxin effect against U87 glioblastoma cells oncogenesis” (Frontiers in Pharmacology, 2023).
Where two headings read alike, the source gives them in different places. Bridges are numbered along the chain shown (N, C = ends). Where no end group is shown, it is not given here.

How the values were obtained:
Kv1.3 potassium channel = conditions: ref Wang, 2004; cited from earlier work
From the text: (§1) Recently, the anticancer activities of some natural peptides/toxins attracted considerable attention in drug discovery and have been the object of several studies showing that they affect tumor growth, induce apoptosis and inhibit cancer metastasis and angiogenesis in vitro and in vivo ([Ding et al., 2014]; [Majc et al., 2022]). Several examples of the activity of these peptides/toxins as well as their effect on K^+ channels have been recently summarized in many reviews.

BKCa channel = conditions: ref Wang, 2004; cited from earlier work
From the text: as §1, with “reviews. Thes ...” for “reviews.”

IKCa/SK4 channel = conditions: ref Wang, 2004; cited from earlier work
From the text: as §1, with “reviews. Thes ...” for “reviews.”

[1] = test system: endometrial cancer cell lines; conditions: ref Wang, 2004; cited from earlier work
From the text: as §1, with “reviews. Thes ...” for “reviews.”

[2] = test system: pancreatic cancer cell lines; conditions: ref Wang, 2004; cited from earlier work
From the text: as §1, with “reviews. Thes ...” for “reviews.”

hSK1 channel [3] = conditions: 2000, cited from earlier work
From the text: (§2) Our team has initiated the fractionation of Aa scorpion venom, in order to identify scorpion peptides targeting potassium channels involved in the oncological process. Thus, we succeeded to isolate one peptide well represented in this venom. Based on its N-terminal sequence and its mass fingerprint this peptide corresponded to the P01 toxin, previously described by ([Zerrouk et al., 1996]).

rSK2 channel = conditions: cited from earlier work
From the text: as §2

hSK1 channel [4] = conditions: ref Shah and Haylett, 2000, cited from earlier work
From the text: This can be explained by the differential expression of either functional SK2 isoforms or other membrane receptors between HEK293 and Jurkat cells.

U87 cells [5] = conditions: ref Pyrko et al., 2005, cited from earlier work
From the text: (§3) Thus, P01 and KAaH1 inhibited the U87 cell migration with different mechanisms. […] For instance, PIVL, a Kunitz-type serine protease inhibitor, from the venom of the Tunisian snake Macrovipera lebetina transmediterranea, re ...

integrins = conditions: tumor cell and angiogenic endothelial cell surface; ref Schmitmeier et al., 2005; cited from earlier work
From the text: as §3

SK2 channel = conditions: HEK293 cells; ref Hosseini et al., 2001; cited from earlier work
From the text: (§4) Besides, it seems that the effect of P01 on U87 cell proliferation is not due only to its blocking activity of SK2 channels, but also by targeting a complex of membrane receptors and/or effectors expressed in U87 cells, including SK2. […] These authors noted that the concentrations necessary for blocking proliferation were higher than those necessary for blocking these ion ...

U87 cells [6] = conditions: ref Abdullaev et al., 2010; cited from earlier work
From the text: as §4

Question: Which “block of Kv1.3” value (Kv1.3 potassium channel) does the source give for charybdotoxin here?
Answer: Its value is “known blocker”.

Question: What about the “block of BKCa” value (BKCa channel) of the same compound?
Answer: Its value is “known blocker”.

Question: What about the “block of IKCa/SK4” value (IKCa/SK4 channel) of the same compound?
Answer: Its value is “known blocker”.

Question: And the “proliferation and cell cycle progression” value [1]?
Answer: The value was “inhibited proliferation and cell cycle progression”.

Question: And the “proliferation and cell cycle progression” value [2]?
Answer: Its value is “inhibited proliferation and cell cycle progression”.

Question: Which IC50 (hSK1 channel [3]; HEK293 cells, ref Shah and Haylett) does the source give for “apamin (CNCKAPETALCARRCQQH-NH2; disulfide 1-11, 3-15; ends not checked; UniProt P01500 28-45, looked up)” here?
Answer: The IC50 was 8 nM.

Question: What about the IC50 (hSK1 channel [3]; HEK 293 cells, ref Strobaek et al.) of the same compound?
Answer: The IC50 was 3.3 nM.

Question: And the IC50 (rSK2 channel; HEK 293 cells, ref Strobaek et al., 2000)?
Answer: Its IC50 is 0.083 nM.

Question: And the IC50 (hSK1 channel [4]; COS-7 cells)?
Answer: The IC50 was 12 nM.

Question: And the IC50 (hSK1 channel [4]; Xenopus oocytes)?
Answer: Its IC50 is 0.1 nM.

Question: What does the source list for contortrostatin?
Answer: survival (U87 cells [5]; rodent glioma model): prolongation of survival; tumor progression (U87 cells [5]; tumor induced by stereotactic injection of U87 cells): inhibited the tumor (induced by the stereotactically injection of U87 cells) progression; integrin binding (integrins): specifically binds to certain integrins

Question: Which results are given for `c1ccc2c(c1)c1cc[n+]2CCCCC[n+]2ccc(c3ccccc32)NCCCCCN1` [UCL1848]?
Answer: IC50 (SK2 channel): 0.12 nM; effect on U87 cell proliferation (U87 cells [6]): no effect

Question: For “leiurotoxin I: first toxin isolated from Leiurus quintestriatus scorpin (AFCNLRMCQLSCRSLGLLGKCIGDKCECVKH-NH2; disulfide 12-28, 3-21, 8-26; ends not checked; UniProt P16341 1-31, looked up)”, which IC50 (rSK2 channel; HEK293 cells, ref Hosseini et al., 2001) is on record?
Answer: The IC50 was 0.28 nM.
